pIC50: −log10 of the molar value.
Tests used:
[1] = In vivo rat pharmacokinetics experiments; conditions: for Clp: intravenous bolus 0.5 to 1 mg/kg; for Clp / T ½: non-compartmental analysis; for F: oral gavage, dose 1 to 600 mg/kg
Description: Example 99: Protocol for Testing PAR2 Compounds In Vivo Rat Pharmacokinetics Experiments
Compounds delivered by intravenous route were formulated using a solution formulation consisting of 5% N-methylpyrrolidone 10% Vitamin E-TPGS and 85% water (v/v/) or a solution formulation consisting of 25% N-methylpyrrolidone 35% polyethylene glycol 400 and 40% water (v/v/). Intravenous formulations were administered by a bolus injection (over approximately 10 seconds) using a hypodermic needle attaches to a syringe (tail vein). The dose volume was varied from 1 to 2 mL/kg and the dose was varied from 0.5 to 1 mg/kg. Compounds delivered orally were formulated as a solution formulation consisting of 5% N-methylpyrrolidone 10% Vitamin E-TPGS and 85% water (v/v/) or as fine suspension using a cellulose derivative suspending agent with or without the addition of a wetting agent/surfactant. Milling of large particles was performed as needed to reduce particle size using focused electroacoustic milling, homogenization or low energy media milling. A spray-dried solid dispersion was prepared for key compounds using 1:1 combination with cellulose derivatives. Test compounds were administered orally by gavage using a gavage plastic needle attached to a syringe. The dose volume was varied from 5 to 10 mL/kg and the dose was varied from 1 to 600 mg/kg.
Rats were bled by venipuncture (jugular vein) and the samples were collected into tubes containing K3EDTA. The tubes were placed on wet ice until processed. The samples were centrifuged for approximately 10 minutes (at approximately 4° C.) within approximately 30 minutes of collection to prepare plasma or diluted in citrate buffer (1:3) and stored frozen (approximately −30° C.). Thawed plasma or whole blood samples were extracted by protein precipitation using an organic solvent followed by centrifugation. The supernatants were separated by high-performance liquid chromatography coupled to mass spectrometry detection. A calibration curve was prepared using reference standard compounds spiked into either blank plasma or whole blood matrices and extracted similarly to unknown samples. Pharmacokinetic parameters were calculated using non-compartmental analysis.

[2] = test system: carrageenan induced paw edema; assay: Rat carrageenan-induced paw edema model; assay type: in vivo; conditions: given 0.5-3 hour before carrageenan
Description: Example 100: In Vivo Pharmacological Evaluation of PAR2 Pathway Inhibitors Subjects and Housing and Rat Carrageenan-Induced Paw Edema Model Male Sprague Dawley rats were housed in groups in a temperature controlled room and were acclimatized in the animal facility for at least three days prior to use. Experiments were performed during the light phase of the cycle. Animals have food and water ad libitum. Peripheral inflammation was induced by intra-plantar administration of 100 ul of a 1% w/volume (in saline) carrageenan solution under isoflurane anesthesia. The degree of swelling was assessed using the plethysmometer at 2-3-4-5-6 h after carrageenan injection. Test compound or vehicle (0.5% MC/0.1% SDS) was systemically administered at the indicated doses in a volume of 5 mL/kg either 0.5-3 hour before carrageenan challenge (Table 4).

PAR2 (HT-29 cells) [3] = target: T1, PAR2 (HT-29 cells) (Homo sapiens, UniProt P55085); assay: Ca FLIPR TETRA assay, ANTAGONIST mode, activator 8 μM SLIGKV; assay type: cell-based; conditions: HT-29 cells; activator 8 μM SLIGKV; Method A: maximal concentration of antagonist 0.1, 1 or 2 μM
T1 construct: host or cells: HT-29
T1 sequence (P55085 26-397): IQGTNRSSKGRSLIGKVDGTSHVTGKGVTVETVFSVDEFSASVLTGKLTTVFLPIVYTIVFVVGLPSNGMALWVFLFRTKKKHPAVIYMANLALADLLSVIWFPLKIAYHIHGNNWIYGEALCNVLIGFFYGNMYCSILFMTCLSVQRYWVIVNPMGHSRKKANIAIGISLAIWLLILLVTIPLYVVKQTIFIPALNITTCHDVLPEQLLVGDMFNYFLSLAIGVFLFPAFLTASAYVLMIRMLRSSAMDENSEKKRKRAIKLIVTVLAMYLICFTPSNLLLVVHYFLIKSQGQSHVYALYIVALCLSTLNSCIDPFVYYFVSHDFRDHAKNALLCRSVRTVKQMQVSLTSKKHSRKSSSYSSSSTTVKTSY
Method in brief: (§1)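 Inhibition of agonist-evoked calcium signals was measured in human HT-29 colon cells cultured overnight in 1% FBS McCoy's medium. Test compounds preincubated 30 min at r.t.; activators at final concentrations as stated for each readout.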

PAR2 (HT-29 cells) [4] = target: T1, PAR2 (HT-29 cells); assay: Ca FLIPR TETRA assay, ANTAGONIST mode, activator 3.1 U/mL trypsin; assay type: cell-based; conditions: HT-29 cells; activator 3.1 U/mL trypsin; Method A: maximal concentration of antagonist 0.1, 1 or 2 μM
Method in brief: as §1

[5] = test system: Thrombin-stimulated Ca2+ response in HT-29 cells; assay: Ca FLIPR TETRA assay, ANTAGONIST mode, activator 1 U/mL Thrombin; assay type: cell-based; conditions: Homo sapiens; HT-29 cells, activator 1 U/mL Thrombin
Method in brief: as §1

[6] = test system: UTP-stimulated Ca2+ response in HT-29 cells; assay: Ca FLIPR TETRA assay, ANTAGONIST mode, activator 0.6 μM UTP; assay type: cell-based; conditions: Homo sapiens; HT-29 cells, activator 0.6 μM UTP
Method in brief: as §1

Row | Clp [1] [mL/min/kg] | T ½ [1] [h] | F [1] [%] | SMILES | % inhibition ([2]; dose 20 mg/kg) [%] | also measured
1 | 3.4 | 30.7 | 87 | CC(C)(C)c1cc(-c2ccc(Cl)c(F)c2)nc2cc(C(=O)N3CCN(c4cn[nH]c4)C(=O)C3(C)C)oc12 [Compound I-260] | 0.4 | –
2 | 5.2 | 3.7 | 58 | CC(C)(C)c1cc(-c2ccc(Cl)c(F)c2)nc2cc(C(=O)N3CCN(c4ccc(C(=O)O)cn4)CC3(C)C)oc12 [Compound I-287] | – | % inhibition ([2]; dose 200 mg/kg): 30%
3 | 13.9 | 1.0 | 49 | CC1(C)CCC(c2cc(C(C)(C)C)c3oc(C(=O)N4CCN(C(=O)[C@H]5CC[C@@](C)(C(=O)O)CC5)CC4(C)C)cc3n2)CC1 [Compound I-316] | 38 | % inhibition ([2]; dose 5 mg/kg): 25%
4 | 21.3 | 0.47 | 19 | CC(C)(C)c1cc(-c2ccc(Cl)c(F)c2)nc2cc(C(=O)N3CCN(C(=O)CC4(C(=O)O)CCCC4)CC3(C)C)oc12 [Compound I-324] | 71 | –
5 | 8.9 | 1.6 | – | CC(C)(C)c1cc(-c2ccc(Cl)c(F)c2)nc2cc(C(=O)N3CCN(c4ncc(-c5nnn[nH]5)cn4)CC3(C)C)oc12 [Compound I-331] | 27 | –
6 | 33 | 0.5 | – | CC1(C)CCC(c2cc(C(C)(C)C)c3oc(C(=O)N4CCN(C(=O)CC5(C(=O)O)CCC5)CC4(C)C)cc3n2)CC1 [Compound I-338] | 0 | –
7 | 53 | 0.33 | 27 | CC(C)[C@H](CC(=O)N1CCN(C(=O)c2cc3nc(-c4ccc(Cl)c(F)c4)cc(C(C)(C)C)c3o2)C(C)(C)C1)C(=O)O [Compound I-343] | 29 | –
8 | 10.2 | 0.99 | 24 | CC(C)(C)c1cc(-c2ccc(Cl)c(F)c2)nc2cc(C(=O)N3CCN(c4cccc(-c5nnn[nH]5)n4)CC3(C)C)oc12 [Compound I-344] | 43 | –
9 | 7.6 | 1.8 | 52 | CC1(C)CCC(c2cc(C(C)(C)C)c3oc(C(=O)N4CCN(c5cccc(-c6nnn[nH]6)n5)CC4(C)C)cc3n2)CC1 [Compound I-345] | – | % inhibition ([2]; dose 15 mg/kg): 28%
10 | 16.5 | 0.44 | 4.7 | CC1(C)CCC(c2cc(C(C)(C)C)c3oc(C(=O)N4CCN(c5ncc(-c6nnn[nH]6)cn5)CC4(C)C)cc3n2)CC1 [Compound I-346] | 60 | –
11 | 6.5 | 5.6 | 48 | Cc1ccc(C(=O)O)c(N2CCN(C(=O)c3cc4nc(-c5ccc(Cl)c(F)c5)cc(C(C)(C)C)c4o3)C(C)(C)C2)n1 [Compound I-352] | 61 | –
12 | 32 | 0.57 | 52 | CC1(C)CCC(c2cc(C(C)(C)C)c3oc(C(=O)N4CCN(C(=O)CCC(C)(C)C(=O)O)CC4(C)C)cc3n2)CC1 [Compound I-354] | 60 | –
13 | 28 | 0.32 | 2.7 | CC(C)(CCC(=O)N1CCN(C(=O)c2cc3nc(-c4ccc(Cl)c(F)c4)cc(C(C)(C)C)c3o2)C(C)(C)C1)C(=O)O [Compound I-367] | 68 | –
14 | 3.6 | 23.2 | 66 | CC(C)(C)c1cc(-c2ccc(Cl)c(F)c2)nc2cc(C(=O)N3CCN(c4ccn[nH]4)C(=O)C3(C)C)oc12 [Compound I-406] | 21 | –
15 | 6.5 | 2.0 | 70 | Cc1nc(N2CCN(C(=O)c3cc4nc(-c5ccc(Cl)c(F)c5)cc(C(C)(C)C)c4o3)C(C)(C)C2)ccc1C(=O)O [Compound I-411] | – | % inhibition ([2]; dose 8 mg/kg): 36%
16 | 5.0 | 5.3 | 119 | CC1(C)CCC(c2cc(C(C)(C)C)c3oc(C(=O)N4CCN(c5cccc(C(=O)O)n5)CC4(C)C)cc3n2)CC1 [Compound I-449] | – | % inhibition ([2]; dose 15 mg/kg): 22%
17 | 9.2 | 5.1 | 46 | Cc1nc(N2CCN(C(=O)c3cc4nc(C5CCC(C)(C)CC5)cc(C(C)(C)C)c4o3)C(C)(C)C2)ncc1C(=O)O [Compound I-465] | 6 | –
18 | – | – | – | CC1(C)CCC(c2cc(C(C)(C)C)c3oc(C(=O)N4CCN(C(=O)[C@H]5CC[C@@](C)(C(=O)O)CC5)CC4(C)C)cc3n2)CC1 [Example I-316] | – | pIC50 (PAR2 (HT-29 cells) [3]): 9.70; pIC50 (PAR2 (HT-29 cells) [4]): 9.70; pIC50 [5]: < 5.70; pIC50 [6]: < 5.70; % inhibition ([2]; dose 15 mg/kg): 50%; % inhibition ([2]; dose 40 mg/kg): 66%; % inhibition ([2]; dose 100 mg/kg): 81%; % inhibition ([2]; dose 250 mg/kg): 79%
19 | – | – | – | CC1(C)CCC(c2cc(C(C)(C)C)c3oc(C(=O)N4CCN(c5cccc(C(=O)O)n5)CC4(C)C)cc3n2)CC1 [Example I-449] | – | pIC50 (PAR2 (HT-29 cells) [3]): 9.05; pIC50 (PAR2 (HT-29 cells) [4]): 8.72; pIC50 [5]: < 6.00; pIC50 [6]: 6.18; % inhibition ([2]; dose 40 mg/kg): 49%; % inhibition ([2]; dose 100 mg/kg): 73%
20 | – | – | – | CC(C)(C)c1cc(-c2ccc(Cl)c(F)c2)nc2cc(C(=O)N3CCN(C(=O)CC4(C(=O)O)CCCCC4)CC3(C)C)oc12 [Example I-547] | – | pIC50 (PAR2 (HT-29 cells) [3]): 10.05; pIC50 (PAR2 (HT-29 cells) [4]): 10.00; pIC50 [5]: < 5.70; pIC50 [6]: < 5.70
21 | – | – | – | CC(C)(C)c1cc(-c2ccc(Cl)c(F)c2)nc2cc(C(=O)N3CCC(N)CC3(C)C)oc12 (stereo not drawn) [Example I-548] | – | pIC50 (PAR2 (HT-29 cells) [3]): 6.16; pIC50 (PAR2 (HT-29 cells) [4]): 6.19; pIC50 [5]: < 5.70; pIC50 [6]: 5.74
22 | – | – | – | CNC1CCN(C(=O)c2cc3nc(-c4ccc(Cl)c(F)c4)cc(C(C)(C)C)c3o2)C(C)(C)C1 (stereo not drawn) [Example I-549] | – | pIC50 (PAR2 (HT-29 cells) [3]): 5.96; pIC50 (PAR2 (HT-29 cells) [4]): 5.85; pIC50 [5]: < 5.70; pIC50 [6]: < 5.70
